Laboratory results from publication PMC6009903, “Synthesis, biological activity and multiscale molecular modeling studies for coumaryl-carboxamide derivatives as selective carbonic anhydrase IX inhibitors” (Journal of Enzyme Inhibition and Medicinal Chemistry, 2017).

Columns and labels:
hCA IX = hCA IX (Homo sapiens, UniProt Q16790); assay: CA inhibition assay, stopped-flow CO2 hydration
Description: (§1) An SX.18 MV-R Applied Photophysics (Oxford, UK) stopped-flow instrument has been used to assay the catalytic/inhibition of various CA isozymes[51]. […] The inhibition constants were obtained by non-linear least-squares methods using the Cheng–Prusoff equation, as reported earlier[39] and represent the mean from at least three different determinations. All CA isozymes used here were recombinant proteins obtained as reported earlier by our group[27]^,[32]^,[40]^,[52].

hCA VII = hCA VII (Homo sapiens, UniProt P43166); assay: CA inhibition assay, stopped-flow CO2 hydration
Description: as §1

hCA II = hCA II (Homo sapiens, UniProt P00918); assay: CA inhibition assay, stopped-flow CO2 hydration
Description: as §1

hCA I = hCA I (Homo sapiens, UniProt P00915); assay: CA inhibition assay, stopped-flow CO2 hydration
Chain of hCA I (P00915 whole entry): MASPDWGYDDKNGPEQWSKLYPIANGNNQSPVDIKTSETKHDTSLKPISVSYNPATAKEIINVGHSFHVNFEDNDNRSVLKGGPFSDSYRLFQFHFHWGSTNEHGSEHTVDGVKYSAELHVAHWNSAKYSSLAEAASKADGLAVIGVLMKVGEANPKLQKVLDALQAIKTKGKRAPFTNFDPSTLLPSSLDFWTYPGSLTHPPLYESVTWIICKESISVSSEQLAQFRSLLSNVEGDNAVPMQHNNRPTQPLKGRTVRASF
Description: as §1

Chain of hCA VII (P43166 whole entry): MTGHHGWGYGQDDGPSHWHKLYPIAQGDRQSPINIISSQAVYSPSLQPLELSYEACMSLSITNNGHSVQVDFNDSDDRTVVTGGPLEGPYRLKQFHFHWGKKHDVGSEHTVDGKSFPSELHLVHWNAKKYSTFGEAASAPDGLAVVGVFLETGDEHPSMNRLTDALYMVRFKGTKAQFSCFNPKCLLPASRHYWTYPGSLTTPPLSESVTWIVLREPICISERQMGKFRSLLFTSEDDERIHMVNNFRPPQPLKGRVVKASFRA

| SMILES | Ki (hCA IX) [µM] | Ki (hCA VII) [µM] | Ki (hCA II) [µM] | melting point [°C] | Ki (hCA I) [µM] |
| --- | --- | --- | --- | --- | --- |
| O=C(NC(=S)NN1CCCCC1)c1cc2ccccc2oc1=O [e18, 2-oxo-N-(piperidin-1-ylcarbamothioyl)-2H-chromene-3-carboxamide] | 0.387 | > 10 | > 10 | 206 | > 10 |
| CC(C)N(C(=S)NC(=O)c1cc2ccccc2oc1=O)C(C)C [e4, N-(diisopropylcarbamothioyl)-2-oxo-2H-chromene-3-carboxamide] | 0.351 | > 10 | > 10 | 150 to 151 | > 10 |
| CNC(=S)NC(=O)c1cc2ccccc2oc1=O [e1, N-(methylcarbamothioyl)-2-oxo-2H-chromene-3-carboxamide] | 0.323 | > 10 | > 10 | 146 to 148 | > 10 |
| CN1CCN(NC(=S)NC(=O)c2cc3ccccc3oc2=O)CC1 [e17, N-((4-methylpiperazin-1-yl)carbamothioyl)-2-oxo-2H-chromene-3-carboxamide] | 0.259 | > 10 | > 10 | 204 | > 10 |
| CCN(CC)C(=S)NC(=O)c1cc2ccccc2oc1=O [e3, N-(diethylcarbamothioyl)-2-oxo-2H-chromene-3-carboxamide] | 0.376 | > 10 | > 10 | 143 | > 10 |
| O=C(NC(=S)NCCN1CCOCC1)c1cc2ccccc2oc1=O [e12, N-((2-morpholinoethyl)carbamothioyl)-2-oxo-2H-chromene-3-carboxamide] | 0.224 | > 10 | > 10 | 136 to 138 | > 10 |
| O=C(NC(=S)N1CCCC1)c1cc2ccccc2oc1=O [e6, 2-oxo-N-(pyrrolidine-1-carbonothioyl)-2H-chromene-3-carboxamide] | 0.298 | > 10 | > 10 | 162 to 163 | > 10 |
| O=C(NC(=S)NN1CCOCC1)c1cc2ccccc2oc1=O [e16, N-(morpholinocarbamothioyl)-2-oxo-2H-chromene-3-carboxamide] | 2.59 | > 10 | > 10 | 180 to 182 | > 10 |
| O=C(NC(=S)NCCN1CCNCC1)c1cc2ccccc2oc1=O [e19, 2-oxo-N-((2-(piperazin-1-yl)ethyl)carbamothioyl)-2H-chromene-3-carboxamide] |  |  |  | 163 to 165 |  |
| CCCNC(=S)NC(=O)c1cc2ccccc2oc1=O [e2, 2-oxo-N-(propylcarbamothioyl)-2H-chromene-3-carboxamide] | 0.286 | > 10 | > 10 | 123 | > 10 |

Further lines, results first:

| Ki (hCA IX) [µM] | Ki (hCA VII) [µM] | Ki (hCA II) [µM] | melting point [°C] | Ki (hCA I) [µM] | SMILES |
| --- | --- | --- | --- | --- | --- |
| 0.18 | > 10 | > 10 | 142 to 143 | > 10 | O=C(NC(=S)NCCC1=CCCCC1)c1cc2ccccc2oc1=O [e13, N-((2-(cyclohex-1-en-1-yl)ethyl)carbamothioyl)-2-oxo-2H-chromene-3-carboxamide] |
| 0.115 | > 10 | > 10 |  | > 10 | O=C(NC(=S)NC1CCCCC1)c1cc2ccccc2oc1=O [e5, N-(cyclohexylcarbamothioyl)-2-oxo-2H-chromene-3-carboxamide] |
| 0.136 | > 10 | > 10 | 123 to 125 | > 10 | O=C(NC(=S)N1CCOCC1)c1cc2ccccc2oc1=O [e9, N-(morpholine-4-carbonothioyl)-2-oxo-2H-chromene-3-carboxamide] |
| 0.202 | > 10 | > 10 | 175 to 176 | > 10 | O=C(NC(=S)N1CCCCC1)c1cc2ccccc2oc1=O [e7, 2-oxo-N-(piperidine-1-carbonothioyl)-2H-chromene-3-carboxamide] |
| 0.13 | > 10 | > 10 |  | > 10 | O=C(NC(=S)NC1Cc2ccccc2C1)c1cc2ccccc2oc1=O [e10, N-((2,3-dihydro-1H-inden-2-yl)carbamothioyl)-2-oxo-2H-chromene-3-carboxamide] |
| 0.182 | > 10 | > 10 | 100 | > 10 | CN(C)CCCNC(=S)NC(=O)c1cc2ccccc2oc1=O [e20, N-((3-(dimethylamino)propyl)carbamothioyl)-2-oxo-2H-chromene-3-carboxamide] |
| 0.128 | > 10 | > 10 | 162 to 164 | > 10 | CN1CCN(C(=S)NC(=O)c2cc3ccccc3oc2=O)CC1 [e8, N-(4-methylpiperazine-1-carbonothioyl)-2-oxo-2H-chromene-3-carboxamide] |
| 0.184 | > 10 | > 10 | 188 to 190 | > 10 | O=C(NC(=S)NCc1ccc2c(c1)OCO2)c1cc2ccccc2oc1=O [e15, N-((benzo[d][1,3]dioxol-5-ylmethyl)carbamothioyl)-2-oxo-2H-chromene-3-carboxamide] |
| 0.108 | > 10 | > 10 | 131 to 132 | > 10 | O=C(NC(=S)NCCN1CCCC1)c1cc2ccccc2oc1=O [e11, 2-oxo-N-((2-(pyrrolidin-1-yl)ethyl)carbamothioyl)-2H-chromene-3-carboxamide] |
| 0.196 | > 10 | > 10 | 148 to 149 | > 10 | COc1ccc(CCNC(=S)NC(=O)c2cc3ccccc3oc2=O)cc1OC [e14, N-((3,4-dimethoxyphenethyl)carbamothioyl)-2-oxo-2H-chromene-3-carboxamide] |
